# Reference: US10183943B2, “Heterocyclic compounds and their use in preventing or treating bacterial infections” (MUTABILIS, priority 2015, dated 2019)
# Legend:
# Format in all cases: cell-based
# [1] = test system: E. cloacae 260508 (TEM-1, CTX-M-15); assay: MIC of ceftazidime (CAZ) in combination with compounds at 4 μg/mL, broth microdilution; conditions: Enterobacter cloacae; strain 260508; CAZ alone, no compound
# Procedure: (§1) Method 2: MIC of Compounds and Synergy with Ceftazidime Against Bacterial Isolates (Table 2 and 3)
# (§2) Compounds of the present invention were assessed against genotyped bacterial strains alone or in combination with the β-lactam ceftazidime (CAZ). In the assays, MICs of said compounds, or of ceftazidime at fixed concentrations of said compounds were determined by the broth microdilution method according to the Clinical Laboratory Standards Institute (CLSI-M7-A7). Briefly, compounds alone according to the invention were prepared in DMSO and spotted (2 μL each) on sterile polystyrene plates (Corning, 3788). Compounds and ceftazidime dilutions were prepared in DMSO and spotted (1 μL each) on sterile polystyrene plates (Corning, 3788). Log phase bacterial suspensions were adjusted to a final density of 5×10^5 cfu/mL in cation-adjusted Mueller-Hinton broth (Becton-Dickinson) and added to each well (98 μL). Microplates were incubated for 16-20 h at 35° C. in ambient air. The MIC of the compounds was defined as the lowest concentration of said compounds that prevented bacterial growth as read by visual inspection. The MIC of ceftazidime at each compound concentration was defined as the lowest concentration of ceftazidime that prevented bacterial growth as read by visual inspection.
# E. cloacae P99 (AmpC) = assay: as above; conditions: Enterobacter cloacae; strain P99; CAZ alone, no compound
# Procedure: as §1, §2
# [2] = test system: E. cloacae UFR51 (SHV-12, IMP-8); assay: as above; conditions: Enterobacter cloacae, read-out: MIC of CAZ
# Procedure: as §1, §2
# [3] = test system: E. cloacae UFR70 (TEM-1, CTX-M-15, CMY-2, OXA-1, Porin loss); assay: as above; conditions: Enterobacter cloacae, read-out: MIC of CAZ
# Procedure: as §1, §2
# [4] = test system: E. cloacae UFR85 (TEM-1, CTX-M-15, AmpC); assay: as above; conditions: Enterobacter cloacae; strain UFR85; CAZ alone, no compound
# Procedure: as §1, §2
# [5] = test system: E. coli 131119 (TEM-1, OXA-48); assay: as above; conditions: Escherichia coli; strain 131119; CAZ alone, no compound
# Procedure: as §1, §2
# E. coli RGN238 (OXA-1) = assay: as above; conditions: Escherichia coli; strain RGN238; CAZ alone, no compound
# Procedure: as §1, §2
# [6] = test system: E. coli UFR18 (CTX-M-15, OXA-204); assay: as above; conditions: Escherichia coli, read-out: MIC of CAZ
# Procedure: as §1, §2
# [7] = test system: E. coli UFR32 (TEM-1, VEB-1, OXA-10); assay: as above; conditions: Escherichia coli, read-out: MIC of CAZ
# Procedure: as §1, §2
# [8] = test system: E. coli UFR41 (TEM-1, CTX-M-15, CMY-2, OXA-1, NDM-4); assay: as above; conditions: Escherichia coli, read-out: MIC of CAZ
# Procedure: as §1, §2
# [9] = test system: E. coli UFR61O (TEM-1, KPC-2); assay: as above; conditions: Escherichia coli; strain UFR61O; CAZ alone, no compound
# Procedure: as §1, §2
# [10] = test system: E. coli UFR74 (SHV-1, DHA-1); assay: as above; conditions: Escherichia coli; strain UFR74; CAZ alone, no compound
# Procedure: as §1, §2
# [11] = test system: K. oxytoca UFR21 (TEM-1, CTX-M-15, OXA-48); assay: as above; conditions: Klebsiella oxytoca; strain UFR21; CAZ alone, no compound
# Procedure: as §1, §2
# [12] = test system: K. pneumoniae 160143 (TEM-1, SHV-1, CTX-M-15, KPC-2, OXA-1); assay: as above; conditions: Klebsiella pneumoniae; strain 160143; CAZ alone, no compound
# Procedure: as §1, §2
# [13] = test system: K. pneumoniae 200047 (TEM-1, SHV-32, CTX-M-15, OXA-1); assay: as above; conditions: Klebsiella pneumoniae; strain 200047; CAZ alone, no compound
# Procedure: as §1, §2
# [14] = test system: K. pneumoniae 6299 (TEM-1, SHV-11, OXA-163); assay: as above; conditions: Klebsiella pneumoniae; strain 6299; CAZ alone, no compound
# Procedure: as §1, §2
# [15] = test system: K. pneumoniae BAA-1898 (TEM-1, SHV-11, SHV-12, KPC-2); assay: as above; conditions: Klebsiella pneumoniae, BAA1898; strain BAA-1898; CAZ alone, no compound
# Procedure: as §1, §2
# [16] = test system: K. pneumoniae UFR24 (TEM-1, SHV-2, SHV-11, OXA-1, OXA-48, OXA-47); assay: as above; conditions: Klebsiella pneumoniae, read-out: MIC of CAZ
# Procedure: as §1, §2
# [17] = test system: K. pneumoniae UFR39 (CTX-M-15, NDM-1); assay: as above; conditions: Klebsiella pneumoniae; strain UFR39; CAZ alone, no compound
# Procedure: as §1, §2
# [18] = test system: K. pneumoniae UFR77 (CMY-2); assay: as above; conditions: Klebsiella pneumoniae; strain UFR77; CAZ alone, no compound
# Procedure: as §1, §2
# [19] = test system: P. aeruginosa CIP107051 (TEM-24); assay: as above; conditions: Pseudomonas aeruginosa; strain CIP107051; CAZ alone, no compound
# Procedure: as §1, §2
# [20] = test system: E. coli 190317 (TEM-1, SHV-12, CTX-M-15, OXA-1); assay: microbe, parasite or virus in culture; conditions: Escherichia coli; strain 190317; CAZ alone, no compound
# Procedure: as §1, §2
# [21] = test system: K. pneumoniae UFR68 (TEM-1, SHV-11, CTX-M-15, KPC-3); assay: microbe, parasite or virus in culture; conditions: Klebsiella pneumoniae, read-out: MIC of CAZ
# Procedure: as §1, §2
smiles,measurement,setting,value
CC(C)(O/N=C(\C(=O)N[C@@H]1C(=O)N2C(C(=O)[O-])=C(C[n+]3ccccc3)CS[C@H]12)c1csc(N)n1)C(=O)O [ceftazidime],MIC,[1],128 µg/mL
same,MIC,E. cloacae P99 (AmpC),128 µg/mL
same,MIC,[2],> 128 µg/mL
same,MIC,[3],> 128 µg/mL
same,MIC,[4],128 µg/mL
same,MIC,[5],0.5 µg/mL
same,MIC,E. coli RGN238 (OXA-1),0.5 µg/mL
same,MIC,[6],> 128 µg/mL
same,MIC,[7],> 128 µg/mL
same,MIC,[8],> 128 µg/mL
same,MIC,[9],128 µg/mL
same,MIC,[10],64 µg/mL
same,MIC,[11],128 µg/mL
same,MIC,[12],128 µg/mL
same,MIC,[13],128 µg/mL
same,MIC,[14],256 µg/mL
same,MIC,[15],256 µg/mL
same,MIC,[16],> 128 µg/mL
same,MIC,[17],> 1020 µg/mL
same,MIC,[18],64 µg/mL
same,MIC,[19],256 µg/mL
same,MIC,[20],128 µg/mL
same,MIC,[21],> 128 µg/mL
